Molecules are shown by their SMILES. Structures can show the parent of a compound that is named as a salt. Where two headings read alike, the source gives them in different places.

One assay concerns the target T1, μ opioid receptor (Homo sapiens, UniProt P35372).
T1 construct: expressed in transfected cells; host or cells: CHO cells (membranes)
Briefly: Competition binding assay on membranes of CHO cells expressing μ opioid receptor, [3H]-labeled ligand. The settings on record: for Ki: read-out: μOR Ki. In outline:
(§1)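 CHO membranes (20–30 μg protein) incubated with [3H]-labeled ligand at 1–2 nM and test compounds, 30 min at 30° C; nonspecific binding with 1 μM corresponding ligand. Filtered on GF/C, washed with 50 mM Tris-HCl pH 7.4, scintillation-counted. IC50 converted to Ki by Ki=IC50/(1+[L]/Kd).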

Another assay concerns the target T2, δ opioid receptor (Homo sapiens, UniProt P41143).
T2 construct: expressed in transfected cells; host or cells: CHO cells (membranes)
Kind of assay: Competition binding assay on membranes of CHO cells expressing δ opioid receptor, [3H]-labeled ligand. The settings on record: for inhibition at 1 µM: 0.5 h. An outline of the steps:
as §1

Another assay concerns the target T3, κ opioid receptor (Homo sapiens, UniProt P41145).
T3 construct: expressed in transfected cells; host or cells: CHO cells (membranes)
Kind of assay: Competition binding assay on membranes of CHO cells expressing κ opioid receptor, [3H]-labeled ligand. The settings on record: for inhibition at 1 µM: 0.5 h. An outline of the steps: as §1

A further assay concerns Female mice. Briefly: In vivo hot plate method analgesia test. The settings on record: intraperitoneal; for Maximum percentage effective analgesia (% MPE): Table 5-2, hot plate 55° C.; for % MPE (5 mg/kg): Table 2-2, hot plate 55° C.; for % MPE @ 10 mg/kg: Table 3-2, hot plate 55° C.; for ED50: Mus musculus, ip. An outline of the steps: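 Female mice (~20 g) on a 55° C hot plate, hindpaw response latency as pain threshold (pre-screen 5–30 s, 60 s cut-off). Latencies at 15, 30, 60 and 120 min after intraperitoneal dosing. %MPE = (post−pre latency)/(60−pre)×100, ED50 derived from %MPE.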
A general note: In hot-plate and tail-flick tests a longer latency is read as antinociception.

[1] abbreviates: 0.5 h, Table 5-1, 1 μM concentration of compound, read-out: μOR Combination rate (%).
Setting [2] is: Table 5-1, 1 μM concentration of compound, read-out: δOR Combination rate (%).
Where [3] appears, read: Table 5-1, 1 μM concentration of compound, read-out: κOR Combination rate (%).
Where [4] appears, read: Table 2-1, 1 μM concentration of compound, read-out: δOR Binding rate (%).
[5] abbreviates: Table 2-1, 1 μM concentration of compound, read-out: κOR Binding rate (%).
Where [6] appears, read: Table 3-1, 1 μM concentration of compounds, read-out: μOR Binding rate (%).
[7] abbreviates: Table 3-1, 1 μM concentration of compounds, read-out: δOR Binding rate (%).
[8] abbreviates: Table 3-1, 1 μM concentration of compounds, read-out: κOR Binding rate (%).
Where [9] appears, read: 0.5 h, read-out: μOR Combination rate (%).
Where [10] appears, read: read-out: δOR Combination rate (%).
Where [11] appears, read: read-out: κOR Combination rate (%).

In the case of `COc1cccc(C2(O)CCN(C(=O)Cc3cccc(C#N)c3)CC2CN(C)C)c1.Cl` (stereo not shown) [FWBE21, 3-(2-(3-((Dimethylamino)methyl)-4-hydroxy-4-(3-methoxyphenyl)piperidin-1-yl)-2-oxoethyl) benzonitrile hydrochloride], the inhibition at 1 µM at μ opioid receptor (setting [1]) was 28.9 ± 17%; at δ opioid receptor (setting [2]) it was 25.4 ± 4.4%; at κ opioid receptor (setting [3]), 42.3 ± 3.3%. Also, in the assay with Female mice (10 mg/kg dose), the “Maximum percentage effective analgesia (% MPE)” value turned out to be 67.09%.

As a reminder, the Ki is a dissociation constant, usually derived from enzyme kinetics or from competition with a known ligand. Consider `COc1cccc(C2(O)CCN(C(=O)Cn3ccc4ccccc43)CC2CN(C)C)c1.Cl` (stereo not shown) [FWBE14, 1-(3-((Dimethylamino)methyl)-4-hydroxy-4-(3-methoxyphenyl)piperidin-1-yl)-2-(1H-indol-1-yl)ethyl-1-one hydrochloride], for which the Ki on μ opioid receptor (Table 5-1) was found to be 72.9 ± 0.1 nM; on δ opioid receptor (Table 5-1, read-out: δOR Ki), 1180 ± 220 nM; on κ opioid receptor (Table 5-1, read-out: κOR Ki), 4060 ± 382 nM. Also, the “Maximum percentage effective analgesia (% MPE)” value in the assay on Female mice (10 mg/kg dose) is listed as 54.23%.

On to `COc1cccc(C2(O)CCN(S(=O)(=O)Cc3cccc(Br)c3)CC2CN(C)C)c1.Cl` (stereo not shown) [FWBH13, 1-((3-Bromobenzyl)sulfonyl)-3-((dimethylamino)methyl)-4-(3-methoxyphenyl)piperidin-4-ol hydrochloride], for which the Ki on μ opioid receptor (Table 2-1) turned out to be 18.2 ± 4.37 nM. Also, the figures for the inhibition at 1 µM on δ opioid receptor (setting [4]) and at κ opioid receptor (setting [5]) were 15.1 ± 2.47% and 42.1 ± 2.29%, respectively. Also, the “% MPE (5 mg/kg)” value in the assay with Female mice is 81.71%.

On to `COc1cccc(C2(O)CCN(S(C)(=O)=O)CC2CN(C)C)c1.Cl` (stereo not shown) [FWBH23, 3-((Dimethylamino)methyl)-4-(3-methoxyphenyl)-1-(methylsulfonyl)piperidin-4-ol hydrochloride], for which, at μ opioid receptor (Table 2-1), the Ki turned out to be 192 ± 15 nM. The inhibition at 1 µM on δ opioid receptor (setting [4]) was determined as 16 ± 1.99%; at κ opioid receptor (setting [5]), 14.3 ± 3.33%. The “% MPE (5 mg/kg)” value in the assay on Female mice was 16.87%.

For the compound `COc1cccc(C2(O)CCN(C(=O)NCc3ccccc3)CC2CN(C)C)c1` (stereo not shown) [FWBF12, N-Benzyl-3-((dimethylamino)methyl)-4-hydroxy-4-(3-methoxyphenyl)piperidine-1-carboxamide hydrochloride], the inhibition at 1 µM at μ opioid receptor (setting [6]) was determined as 35.1 ± 4.4%; at δ opioid receptor (setting [7]) it was 2.6 ± 2.9%; at κ opioid receptor (setting [8]), 5.1 ± 4%. In addition, in the assay on Female mice (10 mg/kg dose), the “% MPE @ 10 mg/kg” value amounted to 15.07%.

With `COc1cccc(C2(O)CCN(S(=O)(=O)Cc3ccccc3F)CC2CN(C)C)c1.Cl` (stereo not shown) [FWBH14, 3-((Dimethylamino)methyl)-1-((2-fluorobenzyl)sulfonyl)-4-(3-methoxyphenyl)piperidin-4-ol hydrochloride], at μ opioid receptor (Table 2-1), the Ki is 29.6 ± 2.53 nM. For the same compound, the inhibition at 1 µM is 40.8 ± 2.66% at δ opioid receptor (setting [4]) and 17.6 ± 6.34% at κ opioid receptor (setting [5]). Besides, the “% MPE (5 mg/kg)” value in the assay with Female mice is 81.20%.

Regarding `COc1cccc([C@@]2(O)CCN(S(=O)(=O)Cc3ccccc3)C[C@@H]2CN(C)C)c1.Cl` [(3S,4R)-1-(Benzylsulfonyl)-3-((dimethylamino)methyl)-4-(3-methoxyphenyl)piperidin-4-ol hydrochloride], the inhibition at 0.1 µM on μ opioid receptor (Table 4-1 footnote a, 0.1 μM, read-out: μOR Inhibition rate) amounted to 24.5 ± 0.64%; on δ opioid receptor (Table 4-1 footnote a, 0.1 μM, read-out: δOR Inhibition rate), 7.3 ± 4.5%; at κ opioid receptor (Table 4-1 footnote a, 0.1 μM, read-out: κOR Inhibition rate), 20.75 ± 0.13%. Also, the “% MPE” value in the assay with Female mice (Table 4-2, hot plate 55° C., 10 mg/kg dose) is 13.4%.

As for `COc1cccc(C2(O)CCN(C(=O)Nc3ccc(F)c(Cl)c3)CC2CN(C)C)c1` (stereo not shown) [FWBF9, N-(3-chloro-4-fluorophenyl)-3-((dimethylamino)methyl)-4-hydroxy-4-(3-methoxyphenyl) piperidine-1-carboxamide hydrochloride], the inhibition at 1 µM is 25 ± 13.3% at μ opioid receptor (setting [6]), 21.6 ± 13.4% at δ opioid receptor (setting [7]) and 7.1 ± 5% on κ opioid receptor (setting [8]). Moreover, in the assay on Female mice (10 mg/kg dose), the “% MPE @ 10 mg/kg” value was determined as 18.15%.

Regarding `COc1cccc(C2(O)CCN(C(=O)NC34CC5CC(CC(C5)C3)C4)CC2CN(C)C)c1` [FWBF14, N-((3S,5S,7S)-adamantan-1-yl)-3-((dimethylamino)methyl)-4-hydroxy-4-(3-methoxyphenyl) piperidine-1-carboxamide hydrochloride], the inhibition at 1 µM on μ opioid receptor (setting [6]) was 13.5 ± 4.8%; on δ opioid receptor (setting [7]), 0%; on κ opioid receptor (setting [8]), 17.9 ± 4.8%. Moreover, the “% MPE @ 10 mg/kg” value in the assay on Female mice (10 mg/kg dose) is 24.15%.

A word on the ED50: it is the midpoint of the dose-response relation. Higher therefore signals weaker potency. As to `COc1cccc(C2(O)CCN(C(=O)Cc3cc(F)c(F)cc3F)CC2CN(C)C)c1.Cl` (stereo not shown) [FWBE18, 1-(3-((Dimethylamino)methyl)-4-hydroxy-4-(3-methoxyphenyl)piperidin-1-yl)-2-(2,4,5-trifluorophenyl)ethyl-1-one hydrochloride], the inhibition at 1 µM was found to be 29.7 ± 1.9% on μ opioid receptor (setting [1]), 0% on δ opioid receptor (setting [2]) and 61.6 ± 0.7% on κ opioid receptor (setting [3]). Also, the ED50 in the assay on Female mice (Table 5-2, hot plate) is 1.11 mg/kg.

As for `COC(=O)c1sccc1NC(=O)N1CCC(O)(c2cccc(OC)c2)C(CN(C)C)C1` (stereo not shown) [FWBF17, Methyl 3-(3-((dimethylamino)methyl)-4-hydroxy-4-(3-methoxyphenyl)piperidine-1-carboxamide) thiophene-2-carboxylate hydrochloride], the inhibition at 1 µM at μ opioid receptor (setting [6]) was 10.2 ± 9%; on δ opioid receptor (setting [7]), 0%; at κ opioid receptor (setting [8]) it was 0%. Also, the “% MPE @ 10 mg/kg” value with Female mice (10 mg/kg dose) was 19.34%.

In the case of `COc1cccc(C2(O)CCN(S(=O)(=O)c3ccccc3)CC2CN(C)C)c1.Cl` (stereo not shown) [FWBH16, 3-((Dimethylamino)methyl)-4-(3-methoxyphenyl)-1-(phenylsulfonyl)piperidin-4-ol hydrochloride], on μ opioid receptor (Table 2-1), the Ki was 87.7 ± 9.37 nM. The inhibition at 1 µM was 40.5 ± 1.66% at δ opioid receptor (setting [4]) and 32.6 ± 0.55% at κ opioid receptor (setting [5]). Further, the “% MPE (5 mg/kg)” value in the assay on Female mice is listed as 100%.

Take `COc1cccc(C2(O)CCN(C(=O)Cc3ccsc3)CC2CN(C)C)c1.Cl` (stereo not shown) [FWBE2, 1-(3-((Dimethylamino)methyl)-4-hydroxy-4-(3-methoxyphenyl)piperidin-1-yl)-2-(thiophen-3-yl)ethyl-1-one hydrochloride]: the inhibition at 1 µM at μ opioid receptor (setting [9]) amounted to 40.6 ± 0.9%; at δ opioid receptor (setting [10]), 14.7 ± 0.9%; on κ opioid receptor (setting [11]) it was 20.8 ± 1.9%. Further, the “Maximum percentage effective analgesia (% MPE)” value in the assay on Female mice (10 mg/kg dose) was 42%.

With `COc1cccc(C2(O)CCN(S(=O)(=O)C(C)C)CC2CN(C)C)c1.Cl` (stereo not shown) [FWBH20, 3-((Dimethylamino)methyl)-1-(isopropylsulfonyl)-4-(3-methoxyphenyl)piperidin-4-ol hydrochloride], at μ opioid receptor (Table 2-1), the Ki came out at 255 ± 5.3 nM. Further, the inhibition at 1 µM at δ opioid receptor (setting [4]) was found to be 20.8 ± 1.91%; on κ opioid receptor (setting [5]), 6.88 ± 4.38%. The “% MPE (5 mg/kg)” value in the assay with Female mice was 0%.

Regarding `COc1cccc(C2(O)CCN(S(=O)(=O)Cc3ccccc3)CC2CN(C)C)c1.Cl` (stereo not shown) [FWBH6, 1-(Benzylsulfonyl)-3-((dimethylamino)methyl)-4-(3-methoxyphenyl)piperidin-4-ol hydrochloride], on μ opioid receptor (Table 2-1, 1 μM concentration of compound, read-out: μOR Binding rate (%)), the inhibition at 1 µM was 0%. Also, the Ki at δ opioid receptor and at κ opioid receptor was more than 10000 nM each time. Moreover, in the assay with Female mice (Table 2-2, hot plate), the 50% effect level (ED50) was put at a dose of 1.1 mg/kg.

For `COc1cccc(C2(O)CCN(S(=O)(=O)Cc3ccc(Cl)cc3)CC2CN(C)C)c1.Cl` (stereo not shown) [FWBH11, 1-((4-Chlorobenzyl)sulfonyl)-3-((dimethylamino)methyl)-4-(3-methoxyphenyl)piperidin-4-ol hydrochloride], the Ki at μ opioid receptor (Table 2-1) came to 711.7 ± 3.65 nM. Besides, the results for the inhibition at 1 µM on δ opioid receptor (setting [4]) and on κ opioid receptor (setting [5]) were 50.9 ± 1.58% and 36.6 ± 3.32%, respectively. The “% MPE (5 mg/kg)” value with Female mice amounted to 55.49%.

For the compound `COc1cccc(C2(O)CCN(C(=O)Nc3cccc(Cl)c3)CC2CN(C)C)c1.Cl` (stereo not shown) [FWBF2, N-(3-Chlorophenyl)-3-((dimethylamino)methyl)-4-hydroxy-4-(3-methoxyphenyl)piperidine-1-carboxamide hydrochloride], the inhibition constant (Ki) on μ opioid receptor (Table 3-1) stood at 14.1 ± 2.7 nM; on δ opioid receptor (Table 3-1, read-out: δOR Ki), 537 ± 69.3 nM; at κ opioid receptor (Table 3-1, read-out: κOR Ki), 719 ± 197 nM. Further, the “% MPE @ 10 mg/kg” value in the assay with Female mice (10 mg/kg dose) is reported as 21.27%.

In the case of `COc1cccc(C2(O)CCN(C(=O)N(C)c3cccc(Cl)c3)CC2CN(C)C)c1.Cl` (stereo not shown) [FWBF3, N-(3-Chlorophenyl)-3-((dimethylamino)methyl)-4-hydroxy-4-(3-methoxyphenyl)-N-methylpiperidine-1-carboxamide hydrochloride], the inhibition at 1 µM came out at 8.7 ± 3.7% at μ opioid receptor (setting [6]), 0% at δ opioid receptor (setting [7]) and 14 ± 9.7% on κ opioid receptor (setting [8]). Moreover, in the assay on Female mice (10 mg/kg dose), the “% MPE @ 10 mg/kg” value is 3.36%.

`COc1cccc(C2(O)CCN(C(=O)Cc3ccccc3)CC2CN(C)C)c1.Cl` (stereo not shown) [FWBE3, 1-(3-((Dimethylamino)methyl)-4-hydroxy-4-(3-methoxyphenyl)piperidin-1-yl)-2-phenylethyl-1-one hydrochloride]: the inhibition at 1 µM on μ opioid receptor (setting [9]) was determined as 41.1 ± 2.3%; on δ opioid receptor (setting [10]), 11.7 ± 0.9%; on κ opioid receptor (setting [11]) it was 23.4 ± 5.7%. Besides, the “Maximum percentage effective analgesia (% MPE)” value in the assay with Female mice (10 mg/kg dose) is recorded as 63.5%.
